# According to paper PMC7380640, “Development of a brain-permeable peptide nanofiber that prevents aggregation of Alzheimer pathogenic proteins” (PLoS ONE, 2020):
# Where a SMILES comes first, the peptide text is derived from it.
# How the values were obtained:
# Aβ (1–42) = settings: 100 nM of Aβ (1–42); cited from earlier work
# Protocol: The neutral αAC nanofibers suppressed aggregation of Aβ (1–42), without promoting the aggregation of 3RMBDof tau (Fig 2) and cytotoxicity of Aβ (1–42) against PC12 cells (Fig 7). Several brain-permeable low molecular weight compounds that suppress the aggregation of amyloidβ have been proposed as therapeutic drugs for AD [48–55]; unfortunately, the affinity of these compounds for Aβ tends to be low. For example, >100 nM of curcumin is required to inhibit the cytotoxicity of 100 nM of Aβ (1–42).
# [1] = test system: rat pheochromocytoma (PC12); settings: cited from earlier work
# Description: (§1) Alzheimer’s disease (AD) is a progressive neurodegenerative disorder and the most common form of dementia characterized by senile plaque (SP), which is the extracellular deposit of amyloidβ(Aβ)aggregates,and neurofibrillary tangle, which is the intracellular accumulation of phosphorylated tau protein [3]. Although highly ordered linear Aβaggregates, known as amyloid fibrils, are the major component of SP and one of the hallmark features of AD, soluble oligomers of aggregates are regarded as more cytotoxic. The therapeutic use of peptide inhibitors of pathological ...
# Aβ peptides = settings: cited from earlier work
# Description: as §1
# trypsin = molecular target: T1, trypsin (Bos taurus, UniProt P00760); assay: Proteolytic digestion with trypsin (GPC); assay type: in vitro ADME; settings: 200 μM peptide or nanofiber, 12 μM trypsin (type XIII, bovine pancreas), 5 mM phosphate 100 mM NaCl pH 7.5, 37°C, GPC peak of FVIFLDVK, A220
# T1 construct: purchased type XIII; host or cells: bovine pancreas
# T1 sequence (P00760 24-246): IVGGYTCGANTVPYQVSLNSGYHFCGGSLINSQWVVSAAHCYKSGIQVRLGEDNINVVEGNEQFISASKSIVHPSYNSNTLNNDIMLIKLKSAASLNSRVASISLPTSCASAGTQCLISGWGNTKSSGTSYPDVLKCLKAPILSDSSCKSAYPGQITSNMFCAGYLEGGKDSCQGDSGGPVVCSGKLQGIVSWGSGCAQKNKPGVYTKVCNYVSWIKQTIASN
# Protocol: The αAC peptides or the neutralαAC nanofiber (200 μM) were incubated with trypsin (12 μM, type XIII from bovine pancreas) in 5 mM phosphate buffer containing 100 mM NaCl (pH 7.5) at 37°C. The molecular mass of the digested peptides were analyzed with MALDI-TOF mass spectroscopy using a BrukerAutoflex Speed instrument. The proteolyzed sample of αAC nanofibers was centrifuged (10,000g for 5 min) to separate the peptide fragments from the nanofibers. The apparent rate of proteolysis of αAC(71–88) was estimated from gel permeation chromatography analysis using a Superdex^TMpeptide 10/300 GL column (GE Healthcare, Piscataway, NJ). Water including 30% acetonitrile and 0.1% TFA was used as the elution solvent.
compound,measurement,setting,value
COc1cc(/C=C/C(=O)CC(=O)/C=C/c2ccc(O)c(OC)c2)ccc1O [curcumin],concentration required to inhibit the cytotoxicity of Aβ (1–42),Aβ (1–42),> 100 nM
DFVIFLDVKHFSPEDLTVK,effect on toxicity of Aβ in PC12,[1]; rat pheochromocytoma (PC12),suppress the toxicity
same,effect on fibril formation of Aβ peptides,Aβ peptides,inhibit fibril formation
CC[C@H](C)[C@H](NC(=O)[C@@H](NC(=O)[C@@H](N)Cc1ccccc1)C(C)C)C(=O)N[C@@H](Cc1ccccc1)C(=O)N[C@@H](CC(C)C)C(=O)N[C@@H](CC(=O)O)C(=O)N[C@H](C(=O)N[C@@H](CCCCN)C(=O)N[C@@H](Cc1c[nH]cn1)C(=O)N[C@@H](Cc1ccccc1)C(=O)N[C@@H](CO)C(=O)N1CCC[C@H]1C(=O)N[C@@H](CCC(=O)O)C(=O)N[C@@H](CC(=O)O)C(=O)N[C@@H](CC(C)C)C(=O)N[C@H](C(=O)N[C@H](C(=O)N[C@@H](CCCCN)C(=O)O)C(C)C)[C@@H](C)O)C(C)C [αAC(71–88)] (H-FVIFLDVKHFSPEDLTVK-OH),fraction of αAC(71–88) digested (single cleavage) after 24 h proteolysis,trypsin,ca. 90%
"DFVIFLDVKHFSPEDLTVK [CPP-fused αAC peptides, cell-penetrating peptide-fused type peptides of the αA-crystallin peptide]",effect on Aβ toxicity,[1],suppress Aβ toxicity
same,effect on Aβ fibril formation,Aβ peptides,prevented Aβ fibril formation
